Data taken from patent publication US6893829B2, “Human leukocyte 12-lipoxygenase and its role in the pathogenesis of disease states” (City of Hope, priority 1992, dated 2005).

How the values were obtained:
[1] = tested on: JNK; assay: JNK activity in CHO-AT1a cells; format: cell-based, Chinese hamster; conditions: AII 10^−7M
Method: The plasmid pGEX-cJun 1/79 (Dept. Pharmacol. UCSD, La Jolla) is a GST-cJun (1-79) expression vector encoding amino acids (1-79) of cJun. The GST fusion protein expression vector was transformed into E. Coli. Protein was induced with 0.1 mM IPTG and purified by affinity binding to glutathione-agarose beads. Unstimulated or stimulated cells were lysed into WCEB (25 mM HEPES, pH 7.7, 03.M Nacl, 15 mM MgCl2, 02.mM EDTA and 0.1% triton X-100). About 50 μg protein extract was incubated with GST-cJun+GSH agarose overnight at 4° C. Phosphorylation was carried out at 30° C. for 20 minutes in the presence of 20 mM HEPES, pH 7.5, 20 mM b-glycerophosphate, 10 mM p-nitrophenolphosphate, 10 mM MgCl2, 10 mM DDT, 50 μg Na3VO4, 20 μM ATP (cold) and about 0.5 μl of new gamma ^32P-ATP. After boiling with electrophoresis sample buffer, the supernatants were analyzed on 12% SDS-PAGE. JNK activity was also measured by immunoprecipitation method using an anti-JNK antibody (Parmingen Co., San Diego) and then activities were measured using 2 μg of GST-cJun (1-79) as substrate as described in Cell, 81:1147-1157 (1995).
(§1) It has been discovered that the administration of AII results in biphasic activation of MAP kinase (all of the MAP kinase experiments were conducted in CHO-AT1a cells—AII receptor AT1a cDNA transfected Chinese hamster ovary cells).

[2] = tested on: VEGF in vascular smooth muscle cells (VSMC); assay: VEGF protein, mRNA and secretion in VSMC (Western, Northern, EIA); format: cell-based, Porcine and human
Method: In addition to the work reflected in FIGS. 8-10, it has now been discovered that AII, 12-HETE and hyperglycemia (HG) increase VEGF production in vascular smooth muscle cells (VSMC). Porcine and human VSMC were cultured for at least two passages under normal glucose (NG, 5.5 mM) or under HG conditions. VEGF protein expression was determined by Western blotting and VEGF mRNA by Northern blots. HG alone increased the level of VEGF mRNA (2.8-fold) and protein (3.2-fold). […] In addition, HG increased the secretion of VEGF into the medium as measured by a specific EIA (56.2±4 ng/ml NG vs 73±5 HG, p<0.02).

[3] = tested on: PAK; assay: PAK activity in CHO-AT1a cells; format: cell-based, Chinese hamster; conditions: AII 10^−7M, 30 minutes
Method: Cell lysis and PAK activity measurement were performed as described in Science, 269:221-223 (1995). Cells were lysed on ice in 50 mM Tris-HCl, 150 mM NaCl, 5 mM EGTA, 50 mM NaF, 10 mM Na pyrophosphate, 1% NP-40, 2.5% glycerol, and 1 mM Na3VO4 (pH 7.5), containing protease inhibitors PMSF, leupeptin and aprotinin. Cell were centrifuged for 10 minutes at 1000 g. For immunoprecipitation, the supernatants were incubated with anti-PAK1 or anti-PAK2 antibody (1:25) (Dept. Immuno. & Cell Biology, Scripps Res. Instit., La Jolla, Calif.) for 2 hours at 4° C. followed by incubation with 60 μl of 1:1 protein A beads for 60 minutes, then 5×1.0 ml lysis buffer washes and 2 washes with kinase buffer (50 mM HEPES, pH 7.5, 10 mM MgCl2 0.2 mM dithiothreitol, 2 μg myelin basic protein and 14 Mμ [r-^32P] ATP) for 20 minutes at 30° C. The reaction was stopped with SDS sample buffer, and results were visualized by SDS-PAGE and autoradiography.
as §1

[4] = tested on: leukocyte 12-LO protein in HSMC; assay: 12-LO protein expression in HSMC (Western immunoblotting); format: cell-based, human
Method: FIGS. 4A and 4B illustrate the regulation of leukocyte 12-LO protein expression by AII in HSMC. FIG. 4A is an immunoblot showing regulation by AII. FIG. 4B is a bar graph representation of densitometric analysis of immunoblot in FIG. 4A. Cells were grown in medium 199 containing 20% FBS and serum-depleted for 24 hours by placing in medium 199 containing 0.4% FBS and 0.2% BSA. Cells were treated with AII at the concentration of 2×10^−7 mol/L for 24 to 48 hours. Cells were washed with PBS and harvested by scraping. Cell pellets were lysed and cytosol fractions were electrophoresed. […]
SDS polyacrylamide gel electrophoresis (10% running gel, 4% stacking gel) was performed according to the method of Laemmli (24). […] Nonspecific binding was evaluated using normal rabbit serum. Western blots were quantitated using a computerized video densitometer (Applied Imagining, Santa Clara, Calif.; Lynx DNA vision) and values expressed as arbitrary absorbance units.
To examine whether AII induces the 12-LO enzyme expression in HSMC, cells were treated with AII at the concentration of 2×10^−7 mol/L for 24 or 48 hours. […] A distinct band was detected with a molecular weight of nearly 72 kD which is the reported molecular weight of the porcine leukocyte-type of 12-LO (FIG. 4). […]

[5] = AII 10^−7M, 4 hours, cells cultured in HG

Substance: Angiotensin II (DRVYIHPF; Angiotensin-2; UniProt P01019 25-32, looked up) [AII, peptide hormone, added to cells as stimulus]
- stimulation of JNK activity [1]: peaks at 30 minutes and remains sustained for 1 hour
- increase in VEGF secretion (EIA) [2]: 1.24 fold
- VEGF mRNA expression increase [2, 5]: 1.4 fold
- VEGF protein expression increase [2, 5]: 2.2 fold
- stimulation of PAK, major peak [3]: 5 fold
- increase in 12-LO protein expression ([4]; AII 2×10^−7 mol/L, 24 hour, serum free media): seven
- 12-LO expression induction ([4]; AII, 48 hours, data not shown): 4-7 fold
